“Also recorded” adds a separate entry of the source.
What was measured:
focal ischemia = conditions: rat; also when given 3 hours or 5 hours after start of recirculation (temporary model); cited from earlier work
volume of necrosis = conditions: administered 15 min prior or 30 min post TBI; preliminary studies; cited from earlier work
[1] = animal studies / rodents; cited from earlier work
[2] = cited from earlier work
striatal lesions = conditions: striatal injections; cited from earlier work
forebrain neurons = experiment: Glutamate-induced neurotoxicity, colorimetric MTT assay, cultured forebrain neurons; format: cell-based, rat
Description: (§1) Primary cultures of neurons derived from the forebrains and spinal cords of E15 fetuses were prepared and maintained in culture for eight days. […] Extending these observations, we compared the neuroprotective efficacy of EEP and TRH.

[3] = tested on: glutamate-stimulated Ca2+ dynamics; experiment: Glutamate-stimulated Ca2+ dynamics after pre-incubation; format: cell-based
[4] = cited from earlier work; remark: listed apart in the source
[5] = tested on: serum enzyme thyroliberinase; conditions: cited from earlier work
[6] = cited from earlier work; for plasma levels of thyroid hormone: in vivo
spinal cord neurons = experiment: Glutamate-induced neurotoxicity, colorimetric MTT assay, cultured spinal cord neurons; format: cell-based, rat; conditions: 100 μM glutamate 30 min
Description: as §1

[7] = tested on: cultured forebrain neurons; experiment: Neuroprotection by EEP with or without SPBN in cultured forebrain neurons exposed to Glu, MTT assay; format: cell-based, rat; conditions: SPBN 10 mM where present, Glu 100 μM, 1 h
Description: Neuroprotection evident at higher concentrations of the tripeptide is further enhanced by the addition of the nitrone. Percent neuroprotection=100×((viabilitytest−vibilitymean Glu))/(viabilitymean control−viabilitymean Glu)). Neuroprotection was then assessed by conducting the colorimetric MTT assay.

[8] = rats, intraperitoneal 1.0 mg/kg; cited from earlier work
[9] = compared with TRH; cited from earlier work
locomotor activity = conditions: administered to rats; cited from earlier work
[10] = tested on: immobility in the Porsolt swim test; conditions: administered to rats; cited from earlier work
TRH receptor = target: T1, TRH receptor (Homo sapiens, UniProt P34981); conditions: reported; cited from earlier work
T1 sequence (P34981 1-398): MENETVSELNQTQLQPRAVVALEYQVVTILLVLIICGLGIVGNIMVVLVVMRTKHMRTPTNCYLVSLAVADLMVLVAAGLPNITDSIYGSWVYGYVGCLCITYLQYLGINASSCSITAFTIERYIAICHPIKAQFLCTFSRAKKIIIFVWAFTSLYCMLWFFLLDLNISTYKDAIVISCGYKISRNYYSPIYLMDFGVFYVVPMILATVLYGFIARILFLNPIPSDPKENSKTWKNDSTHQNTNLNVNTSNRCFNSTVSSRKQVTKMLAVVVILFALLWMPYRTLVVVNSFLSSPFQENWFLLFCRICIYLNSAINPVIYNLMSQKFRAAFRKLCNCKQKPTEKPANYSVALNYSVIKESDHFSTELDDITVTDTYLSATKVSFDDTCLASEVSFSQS

## CC(C)(C)[N+]([O-])=Cc1ccc(S(=O)(=O)[O-])cc1S(=O)(=O)[O-].[Na+].[Na+] [NXY-059]
Focal ischemia
  efficacy in temporary and permanent focal ischemia: effective
Volume of necrosis
  volume of necrosis: effective in decreasing volume of necrosis

## CC(C)(C)[N+]([O-])=Cc1ccccc1 [PBN, α-Phenyl-N-tert-butylnitrone]
[1]
  toxicity: significant toxicity at high doses; also recorded: toxic in rodents at high doses

## CC(C)(C)[N+]([O-])=Cc1ccccc1S(=O)(=O)O [SPBN, N-tert-Butyl-α-(2-sulfophenyl)nitrone]
[1]
  toxicity: without significant toxicity; also recorded: Toxicity has not been a problem
[2]
  solubility in aqueous solutions: soluble
Striatal lesions
  volume of lesions induced by NMDA, kainic acid, AMPA, MPP+, 3-acetyl pyridine and malonate: decreasing the volume of the lesions

## NC(=O)[C@@H]1CCCN1C(=O)[C@H](Cc1cnc[nH]1)NC(=O)[C@@H]1CCC(=O)N1 [TRH, pyroglutamate-histidine-proline-amide, reference compound]
Forebrain neurons
  effect on glutamate-mediated neurotoxicity: relatively little effect
[3]
  effect on glutamate-stimulated Ca2+ dynamics: clearly does
[4]; injected, blood
  hydrolysis by pyroglutamylpeptidase II found in blood: rapidly hydrolyzed
[5]
  hydrolysis by serum enzyme thyroliberinase: hydrolyzed
[6]
  plasma levels of thyroid hormone: elevates

## pGLU-GLU-PRO-NH2 [EEP]
Spinal cord neurons; 500 μM EEP, n=7
  reduction of Glu-induced toxicity: 20±2.0%
Spinal cord neurons; 1 mM EEP, n=8
  neuroprotection (reduction of Glu-induced toxicity): 38.9±4.9%
Forebrain neurons; 500 μM EEP, 100 μM glutamate 30 min, n=7
  reduction of Glu-induced toxicity: 29.8±5.6%
Forebrain neurons; 1 mM EEP, 100 μM glutamate 30 min, n=7
  neuroprotection (reduction of Glu-induced toxicity): 54.1±5.3%
Forebrain neurons; EEP compared with TRH, neuron type not stated
  neuroprotective efficacy / potency relative to TRH: over three times as effective as TRH; also recorded: three times the neuroprotective potency of TRH
[3]
  effect on glutamate-stimulated Ca2+ dynamics: does not affect
[7]; EEP 300 μM
  Percent Neuroprotection: 13.321 ± 7.319%
[7]; EEP 1000 μM
  Percent Neuroprotection: 35.784 ± 15.431%
[8]
  increase of EEP level in amygdala: 7 fold
  increase of EEP level in cortex: 14 fold
  increase of EEP level in the eye: Over one hundred
  increase of EEP level in the hypothalamus: 2 fold
  increase of EEP level in the medulla: 4 fold
  increase of EEP level in the pituitary: 11 fold
[9]
  stability in follicular fluid: more stable than TRH
Locomotor activity
  locomotor activity: increases
[10]
  immobility in the Porsolt swim test: decreases
TRH receptor
  affinity for the TRH receptor: low affinity
[4]; human serum
  degradation in human serum: not degraded at all
[5]
  hydrolysis by serum enzyme thyroliberinase: not hydrolyzed
[6]; compared to thyrotropin releasing hormone
  efficacy as a releaser of thyroid stimulating hormone or triiodothyronine: minimal efficacy
[6]
  plasma levels of thyroid hormone: does not elivate
